Assay [1] has as its target T1, CXCR4 chemokine receptor (Homo sapiens, UniProt P61073).
T1 construct: Human monocytes, which express the CXCR4 chemokine receptor; endogenous in cells; host or cells: human monocytes
The assay is described as follows: Competition with 44716.111 mAb binding to CXCR4 on human monocytes (FACS). The conditions noted are these: human monocytes pre-incubated 15 min at 4° C. with 125 nM SDF-1α or 200 μM NSC 651016. How it is done: Competition assays were performed with the 44716.111 mouse monoclonal antibody (mAb), which binds to the extracellular domain of the CXCR4 chemokine receptor. Human monocytes, which express the CXCR4 chemokine receptor, were pre-incubated with either 125 nM of SDF-1α or 200 μM NSC 651016 for 15 min at 4° C. Control monocyte cells were placed at 4° C. for 15 min. The cells were then incubated with the 44716.111 mAb for an additional 30 min. The presence of the 44716.111 mAb was detected by incubating the cells with FITC-conjugated anti-murine antibody and subjecting the cells to FACS Analysis.

In assay [2] the test system is Murine spleen cells. Kind of assay: Chemotaxis of non-adherent murine spleen cells in vitro. Conditions: 10 ng/ml RANTES alone; media alone = 1. The format is cell-based. How it is done: Murine spleen cells were “panned” on plastic to remove the adherent cells. The recovered cells were incubated for 30 minutes at 37° C. with one of the following: NSC 651015, NSC 651016, NSC 662162, and NSC 680651. […] In assays similarly performed using either the MIP-1α or the SDF-1α chemokine rather than RANTES, chemotactic inhibition was also observed in the presence of formula I compounds.

T1 sequence (P61073 whole entry): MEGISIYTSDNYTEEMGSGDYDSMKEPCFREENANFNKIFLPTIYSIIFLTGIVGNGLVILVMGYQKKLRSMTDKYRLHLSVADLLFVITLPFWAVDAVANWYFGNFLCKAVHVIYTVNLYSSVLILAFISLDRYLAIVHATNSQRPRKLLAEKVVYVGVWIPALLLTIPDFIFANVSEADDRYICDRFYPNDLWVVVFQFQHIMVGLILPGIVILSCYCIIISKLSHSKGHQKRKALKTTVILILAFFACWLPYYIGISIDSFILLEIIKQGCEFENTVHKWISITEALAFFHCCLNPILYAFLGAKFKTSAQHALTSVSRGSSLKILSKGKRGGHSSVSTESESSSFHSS

Regarding SDF-1α, in assay [1], the “44716.111 antibody binding to the CXCR4 receptor” value was “decrease in 44716.111 antibody binding”.

B1: RANTES: β-chemokine used as chemoattractant stimulus (protein, UniProt P13501 24-91, looked up)
C-C motif chemokine 5: SPYSSDTTPCCFAYIARPLPRAHIKEYFYTSGKCSNPAVVFVTRKNRQVCANPEKKWVREYINSLEMS
Take B1: the chemotactic index in assay [2] was 2.3.

Values taken from patent US6562859B1, “Ureido derivatives of poly-4-amino-2-carboxy-1-methyl pyrrole compounds for inhibition of inflammation” (The United States of America as represented by the …, priority 1997, dated 2003).
